The record followed here is patent US20260193219A1, “TRIAZINE DERIVATIVES FOR TREATING DISEASES RELATING TO NEUROTROPHINS” (AlzeCure Pharma AB, priority 2020, published 2026).

pEC50: −log10 of the molar value.

In series [1] the test system is C57/Bl6 mice. As to the kind of experiment: Passive avoidance task in scopolamine-treated mice. Format: in vivo. As to conditions: mice treated with scopolamine 0.3 mg/kg s.c.; compound single s.c. administration 60 min prior to training, different doses. How it is done: The passive avoidance (PA) is an aversive learning task based on classical (Pavlovian) fear conditioning that allows for analysis of both facilitation and impairment of memory function by adjusting the unconditioned stimulus, i.e. the electrical foot shock. Commonly a cognitive-impairing agent is administered to the animals to mimic the neurochemical disturbances present in various cognitive disorders e.g. cholinergic (scopolamine) and glutamatergic (MK-801) deficits.
Prior to testing, the animals are brought to the experimental room where they were allowed to habituate for 60 min. The test is conducted using a modified shuttle box with two communicating compartments of equal size with a small sliding door built into the separating wall and a stainless-steel bar floor. One of the compartments is not illuminated and thus black whereas the other compartment (the light one) is illuminated by an electric bulb, installed on the top of a plexiglass cover. The PA training is conducted in a single session. […] Latency to cross over into the dark compartment (training latency) is recorded. […] The latency to cross over into the dark compartment with all four feet is measured (retention latency) as well as time in bright compartment and a number of other relevant parameters (e.g. number of visits in the dark compartment). […]

The target of series [2] is T1, TrkA (Homo sapiens, UniProt P04629).
T1 construct: expressed in transfected cells; host or cells: U2OS
T1 sequence (P04629 33-796): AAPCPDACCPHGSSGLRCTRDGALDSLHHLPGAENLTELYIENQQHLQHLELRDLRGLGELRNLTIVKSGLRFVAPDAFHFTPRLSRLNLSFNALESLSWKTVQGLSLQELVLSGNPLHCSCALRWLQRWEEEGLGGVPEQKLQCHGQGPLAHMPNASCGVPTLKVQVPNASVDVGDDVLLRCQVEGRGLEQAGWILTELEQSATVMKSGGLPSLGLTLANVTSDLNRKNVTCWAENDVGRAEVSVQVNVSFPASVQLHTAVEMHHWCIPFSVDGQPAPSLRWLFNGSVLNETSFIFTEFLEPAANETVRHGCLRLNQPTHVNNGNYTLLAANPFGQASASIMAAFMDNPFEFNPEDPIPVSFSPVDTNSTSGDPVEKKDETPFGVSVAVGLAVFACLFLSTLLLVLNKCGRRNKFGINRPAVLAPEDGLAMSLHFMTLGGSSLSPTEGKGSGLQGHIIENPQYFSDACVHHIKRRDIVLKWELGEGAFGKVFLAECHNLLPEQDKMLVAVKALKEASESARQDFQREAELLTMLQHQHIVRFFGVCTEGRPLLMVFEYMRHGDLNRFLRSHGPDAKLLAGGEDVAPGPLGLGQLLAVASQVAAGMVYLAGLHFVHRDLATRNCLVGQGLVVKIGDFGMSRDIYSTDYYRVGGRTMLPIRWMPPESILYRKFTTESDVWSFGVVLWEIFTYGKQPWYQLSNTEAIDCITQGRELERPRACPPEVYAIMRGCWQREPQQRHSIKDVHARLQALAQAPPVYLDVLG
In words: In vitro Trk receptor modulation assay (Enzyme Fragment Complementation), U2OS cells over-expressing TrkA. Format: cell-based. As to conditions: compound pre-mixed with ligand (NGF), final 10 ng/mL, 3 hours, modulator mode. An excerpt:
(§1) A high throughput cell-based screen was used to identify positive modulators of TrkA and TrkB. The screen involves the use of cell-based assay overexpressing TrkA, or TrkB. The purpose of the assay is to identify compounds that modulate neurotrophin signalling (Forsell et al 2012). The assay can be used in inhibitor mode using a high concentration of ligand, in modulator mode using an intermediate concentration and in agonist mode using a low concentration of ligand.
(§2) The assay uses Enzyme Fragment Complementation (EFC) technique, which is a proximity-based assay. Briefly, cells used in this assay over-express two fusion proteins, i.e. the receptor, which can be one of TrkA or TrkB fused to a small peptide of beta-galactosidase and an adaptor protein, i.e. SHC1 (or any other Trk-adaptor protein) fused to the major part of beta-galactosidase. […] The proximity between the small activating peptide on the receptor and the major part of beta-galactosidase on the adaptor protein leads to an active beta-galactosidase enzyme. The activation of the receptor is quantified by measuring the amount of active beta-galactosidase by its conversion of a non-luminescent substrate into a luminescent product.
(§3) U2OS-cells, over-expressing TrkA or TrkB, were plated in 96- or 384-well plates and incubated overnight. On the following day, test compound was pre-mixed with ligand (NGF) and the ligand-compound mixture is then added to the cells to yield a final ligand concentration of 10 ng/mL. After 3 hours of incubation at room temperature, the incubation is stopped by the addition of a beta-galactosidase substrate mixture containing detergents. The substrate mixture is incubated for 60 minutes at ambient temperature. The luminescence is thereafter read by the use of a plate reader.

Series [3] addresses T2, TrkB (Homo sapiens, UniProt Q16620).
T2 construct: expressed in transfected cells; host or cells: U2OS
As to the kind of experiment: In vitro Trk receptor modulation assay (Enzyme Fragment Complementation), U2OS cells over-expressing TrkB. The format is cell-based. As to conditions: compound pre-mixed with ligand (NGF), final 10 ng/mL, 3 hours, modulator mode.
Source text: as §1, §2, §3

Series [4] concerns C57/B16 mice. In words: Forced Swim Test. The format is in vivo. The following applies: 1 mg/kg single s.c. administration 30 min prior to FST on day 2. How it is done:
The Forced Swim Test (FST) is a commonly used test in rodents to assess depression-like behaviour (Porsolt et al., Nature, 1977, 266, 730-732). The model measures a learned helplessness response and has shown to have predictive validity for clinical antidepressants, e.g. SSRIs.
The mouse version consists of a vertical glass cylinder (25 cm high, 13 cm in diameter) filled with tap water up to 16 cm in height (25±0.5° C.). This means that the animal cannot escape (climb out) nor stand on its tail or hindlimbs. After a certain time the animal realize that it cannot get out and will stop struggling to get out, and instead become immobile and float.
The animal is placed inside the cylinder and allowed two swimming sessions: a 10 min pre-test (on day 1), 24 h later (day 2) a second 6 min test is conducted. The total duration of immobility and latency to the first immobility are recorded during the second 6 min test. Immobility is defined as floating passively in an upright position in the water, with only small movements necessary to keep the head above the water surface. Animals are then gently removed from water and dried.
Vehicle (20% DMSO in 0.1M PBS) or 1 mg/kg of the compound of Example 1 were administered to C57/B16 mice as a single s.c. administration 30 min prior to FST on day 2. As comparator, fluoxetine is commonly used a dose of 20 mg/kg. […]

Series [5] can be described thus: Human liver microsomal stability. Format: in vitro ADME. As to conditions: human liver microsomes 0.5 mg/mL, 3 μM compound, NADPH, 37° C. How it is done: A 10 mM stock solution (in DMSO) was prepared for each compound. From the intermediate stock solution of 2 mM, a working solution of 0.5 mM was prepared by diluting the compound in Acetonitrile:water (50:50). The compound (1.8 μL of working solution) was spiked in 0.1 M potassium phosphate buffer (260.7 μL), pH 7.4 at a concentration of 3 μM (0.1% DMSO). Following this, human liver microsomes (pooled, Invitrogen, #HMMCPL) (7.5 μL; final protein conc. 0.5 mg/mL) were added. The aforementioned sample was incubated at 37° C. for 5 min. Subsequently, 30 μL of 10 mM NADPH prepared in 0.1 M potassium phosphate buffer was added (as a co-factor) to initiate the reaction. The samples were then incubated at 37° C. for 0, 20, 40, 60 and 120 min.
At each time point (0, 20, 40, 60 and 120 min), 40 μL of the samples were withdrawn and reactions were stopped using 360 μL chilled acetonitrile or methanol containing suitable internal standard (Carbamazepine). The samples were centrifuged and the supernatants was analyzed in duplicate by LC-MS/MS. The percent compound remaining at each time point was calculated with respect to that of the 0 min sample. Control samples were run without NADPH for initial and final time point and blank samples was prepared using DMSO (without the test compound).
For comparison, the experiment was also performed with known Trk receptor signalling modulator 1-methyl-3-[3-methyl-4-(4-trifluoromethanesulfonylphenoxy)phenyl]-1,3,5-triazinane-2,4,6-trione) (ponazuril). Ponazuril is metabolized very slowly in vivo and this prolonged exposure creates an increased risk of side effects if the compound is administered systemically. This causes significant challenges to the development of the compound as a systemic drug.

T2 sequence (Q16620 32-822): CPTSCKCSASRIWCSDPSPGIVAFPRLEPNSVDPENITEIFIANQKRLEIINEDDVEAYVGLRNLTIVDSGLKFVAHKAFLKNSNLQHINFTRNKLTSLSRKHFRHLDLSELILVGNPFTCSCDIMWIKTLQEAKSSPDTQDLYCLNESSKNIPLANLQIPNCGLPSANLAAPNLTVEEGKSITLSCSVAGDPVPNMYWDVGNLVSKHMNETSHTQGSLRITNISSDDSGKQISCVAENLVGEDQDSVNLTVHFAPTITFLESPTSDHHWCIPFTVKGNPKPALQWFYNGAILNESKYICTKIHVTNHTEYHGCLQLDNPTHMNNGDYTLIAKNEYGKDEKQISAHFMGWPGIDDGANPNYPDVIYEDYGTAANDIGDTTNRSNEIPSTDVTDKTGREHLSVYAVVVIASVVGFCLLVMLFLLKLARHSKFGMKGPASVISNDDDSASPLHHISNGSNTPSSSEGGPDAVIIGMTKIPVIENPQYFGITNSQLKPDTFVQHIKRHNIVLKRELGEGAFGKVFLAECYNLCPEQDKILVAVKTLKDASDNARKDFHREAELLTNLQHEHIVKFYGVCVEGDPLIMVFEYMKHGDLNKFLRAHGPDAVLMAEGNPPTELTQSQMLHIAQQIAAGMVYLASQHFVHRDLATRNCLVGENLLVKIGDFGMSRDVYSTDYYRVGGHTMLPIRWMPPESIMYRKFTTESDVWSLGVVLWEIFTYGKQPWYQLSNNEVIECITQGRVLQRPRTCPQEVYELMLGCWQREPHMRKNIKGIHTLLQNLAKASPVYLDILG

Regarding `Cc1cccc(-n2c(=O)[nH]c(=O)n(-c3ccc(Oc4ccccc4)c(C)c3)c2=O)c1` [Example 1, 1-(3-methyl-4-phenoxyphenyl)-3-(3-methylphenyl)-1,3,5-triazinane-2,4,6-trione], the “cognitive function, retention latency within the bright area (passive avoidance)” value in series [1] is “improves cognitive function”. Moreover, the negative logarithm of the EC50 (pEC50) in series [2] is 6.92; in series [3], 6.82. Besides, the “time spent immobile (Forced Swim Test) compared to vehicle control” value in series [4] was “decreased time spent immobile”. In addition, the “% of parent compound metabolized after 120 min” value in series [5] came out at 26.8%.
